In patent publication US9238656B2, “Imidazo[4,5-b]pyridine derivatives as ALK and JAK modulators for the treatment of proliferative disorders” (priority 2012, dated 2016):

What was measured:
[1] = biological target: baculovirus-expressed JAK2 kinase (Homo sapiens, UniProt O60674); experiment: biochemical; conditions: 0.2 μM ATP; read-out: JAK2 Potency
In short: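 IC50 derived by variable-slope sigmoidal fit of percent inhibition against log compound concentration. Baculovirus-expressed JAK2 (15 ng/mL) phosphorylated a plate-bound biotinylated 15-mer peptide for 20 min at room temperature; detection by time-resolved fluorescence.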

[2] = biological target: baculovirus-expressed ALK (Homo sapiens, UniProt Q9UM73); experiment: ALK kinase inhibition, TRF/ELISA; type: biochemical; conditions: read-out: ALK Potency
Chain of baculovirus-expressed ALK (Q9UM73 19-1620): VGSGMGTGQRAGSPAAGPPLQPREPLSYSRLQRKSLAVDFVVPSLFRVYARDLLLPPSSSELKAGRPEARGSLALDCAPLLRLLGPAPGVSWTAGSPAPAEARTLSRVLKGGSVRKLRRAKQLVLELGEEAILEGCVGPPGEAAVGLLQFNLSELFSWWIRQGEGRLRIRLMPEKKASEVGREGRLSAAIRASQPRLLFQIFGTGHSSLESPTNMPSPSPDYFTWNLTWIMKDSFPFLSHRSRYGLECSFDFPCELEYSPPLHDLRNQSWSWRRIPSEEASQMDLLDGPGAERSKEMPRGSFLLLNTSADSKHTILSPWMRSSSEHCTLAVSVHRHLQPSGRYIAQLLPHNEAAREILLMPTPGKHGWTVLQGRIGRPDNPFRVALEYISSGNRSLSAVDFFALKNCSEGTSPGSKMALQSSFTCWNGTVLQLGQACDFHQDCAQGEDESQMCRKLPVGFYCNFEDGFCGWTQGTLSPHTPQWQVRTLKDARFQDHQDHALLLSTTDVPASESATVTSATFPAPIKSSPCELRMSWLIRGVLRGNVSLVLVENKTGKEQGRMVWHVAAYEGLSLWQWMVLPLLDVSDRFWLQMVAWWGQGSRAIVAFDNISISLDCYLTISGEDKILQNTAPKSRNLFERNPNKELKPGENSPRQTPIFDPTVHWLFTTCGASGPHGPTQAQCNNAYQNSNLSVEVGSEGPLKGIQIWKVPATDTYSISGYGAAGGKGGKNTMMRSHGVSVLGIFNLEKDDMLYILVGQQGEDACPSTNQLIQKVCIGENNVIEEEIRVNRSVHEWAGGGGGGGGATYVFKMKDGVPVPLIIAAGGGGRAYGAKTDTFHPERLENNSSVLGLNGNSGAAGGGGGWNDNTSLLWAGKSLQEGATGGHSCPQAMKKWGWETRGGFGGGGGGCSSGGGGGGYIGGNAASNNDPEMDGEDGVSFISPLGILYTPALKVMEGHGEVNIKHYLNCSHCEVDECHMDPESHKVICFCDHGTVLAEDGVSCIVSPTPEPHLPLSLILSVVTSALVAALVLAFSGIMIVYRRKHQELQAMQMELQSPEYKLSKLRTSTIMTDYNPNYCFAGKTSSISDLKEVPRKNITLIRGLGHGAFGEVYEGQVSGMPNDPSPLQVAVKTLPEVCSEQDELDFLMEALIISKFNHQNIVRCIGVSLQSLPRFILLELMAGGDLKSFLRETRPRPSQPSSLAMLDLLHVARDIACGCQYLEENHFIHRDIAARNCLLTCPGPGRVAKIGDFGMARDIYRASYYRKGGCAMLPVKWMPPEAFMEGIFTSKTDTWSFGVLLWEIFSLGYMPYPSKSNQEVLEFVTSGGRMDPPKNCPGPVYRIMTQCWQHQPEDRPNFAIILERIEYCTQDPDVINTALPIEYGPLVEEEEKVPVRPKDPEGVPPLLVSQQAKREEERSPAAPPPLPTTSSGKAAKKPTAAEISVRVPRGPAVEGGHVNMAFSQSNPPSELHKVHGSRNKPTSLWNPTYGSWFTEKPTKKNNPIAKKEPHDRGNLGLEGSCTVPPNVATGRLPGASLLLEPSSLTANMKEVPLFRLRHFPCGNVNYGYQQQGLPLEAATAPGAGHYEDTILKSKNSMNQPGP
In short: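 Eu-PT66 anti-phosphotyrosine TRF read-out measured phosphorylation of plate-bound GST-PLC-γ (coated at 10 μg/mL). The phosphorylation was driven by 30 ng/mL ALK for 15 minutes at 37° C.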

Chain of baculovirus-expressed JAK2 kinase (O60674 whole entry): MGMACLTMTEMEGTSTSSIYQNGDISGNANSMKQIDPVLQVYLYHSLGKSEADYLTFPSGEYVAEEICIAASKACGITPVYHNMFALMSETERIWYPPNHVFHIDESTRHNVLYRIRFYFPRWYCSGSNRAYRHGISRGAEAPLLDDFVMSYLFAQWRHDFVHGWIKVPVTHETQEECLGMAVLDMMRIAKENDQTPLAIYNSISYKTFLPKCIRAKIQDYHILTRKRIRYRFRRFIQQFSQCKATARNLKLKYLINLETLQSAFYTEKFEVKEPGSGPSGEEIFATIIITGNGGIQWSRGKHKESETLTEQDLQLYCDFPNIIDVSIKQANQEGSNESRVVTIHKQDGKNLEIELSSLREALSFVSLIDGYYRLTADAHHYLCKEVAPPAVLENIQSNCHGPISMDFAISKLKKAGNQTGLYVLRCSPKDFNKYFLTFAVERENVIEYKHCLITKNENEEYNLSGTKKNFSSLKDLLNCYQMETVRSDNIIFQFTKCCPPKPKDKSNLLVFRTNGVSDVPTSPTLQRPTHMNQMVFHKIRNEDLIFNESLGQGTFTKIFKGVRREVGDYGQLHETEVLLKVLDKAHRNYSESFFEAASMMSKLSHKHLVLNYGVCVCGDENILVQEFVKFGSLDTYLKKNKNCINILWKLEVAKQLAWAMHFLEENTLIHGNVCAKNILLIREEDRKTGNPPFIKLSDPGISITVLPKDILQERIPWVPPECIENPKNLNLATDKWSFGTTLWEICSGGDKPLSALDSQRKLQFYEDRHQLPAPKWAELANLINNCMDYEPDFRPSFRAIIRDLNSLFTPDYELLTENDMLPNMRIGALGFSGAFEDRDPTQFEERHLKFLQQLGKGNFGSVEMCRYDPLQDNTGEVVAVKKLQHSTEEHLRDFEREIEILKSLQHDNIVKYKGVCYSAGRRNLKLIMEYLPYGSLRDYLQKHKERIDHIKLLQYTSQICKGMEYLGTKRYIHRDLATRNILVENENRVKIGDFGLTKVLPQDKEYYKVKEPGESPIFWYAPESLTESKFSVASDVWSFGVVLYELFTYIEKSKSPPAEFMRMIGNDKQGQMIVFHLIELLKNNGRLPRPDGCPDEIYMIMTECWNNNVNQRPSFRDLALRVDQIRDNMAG

Structure (SMILES)	IC50 [1] [µM]	melting point [°C]	IC50 [2] [µM]
CN1CCN(c2ccc(-c3nc4c(N[C@@H]5[C@H]6CC[C@H](C6)[C@@H]5C(N)=O)c(Br)cnc4[nH]3)cc2)CC1 [Compound CXIII, (1R,2S,3R,4S)-3-{6-Bromo-2-[4-(4-methyl-piperazin-1-yl)-phenyl]-3H-imidazo[4,5-b]pyridin-7-ylamino}-bicyclo[2.2.1]heptane-2-carboxylic acid amide]	< 0.1	256 to 258	< 0.1
NC(=O)[C@@H]1[C@H](Nc2c(Br)cnc3[nH]c(-c4cccnc4N4CCCC4)nc23)[C@H]2C=C[C@@H]1C2 [Compound CV, (1S,2S,3R,4R)-3-[6-Bromo-2-(2-pyrrolidin-1-yl-pyridin-3-yl)-3H-imidazo[4,5-b]pyridin-7-ylamino]-bicyclo[2.2.1]hept-5-ene-2-carboxylic acid amide]	1 to 10	190	1 to 10
NC(=O)[C@@H]1[C@H](Nc2c(Br)cnc3[nH]c(-c4cccc(N5CCOCC5)c4)nc23)[C@H]2C=C[C@@H]1C2 [Compound LXXXIII, (1S,2S,3R,4R)-3-[6-Bromo-2-(3-morpholin-4-yl-phenyl)-3H-imidazo[4,5-b]pyridin-7-ylamino]-bicyclo[2.2.1]hept-5-ene-2-carboxylic acid amide]	< 0.1	232 to 234	< 0.1
Cc1ccc(-c2nc3c(N[C@H]4[C@@H](C(N)=O)[C@@H]5C=C[C@H]4C5)c(Br)cnc3[nH]2)o1 [Compound CX, (1S,2S,3R,4R)-3-[6-Bromo-2-(5-methyl-furan-2-yl)-3H-imidazo[4,5-b]pyridin-7-ylamino]-bicyclo[2.2.1]hept-5-ene-2-carboxylic acid amide]	< 0.1	200 to 201	0.1 to 1
COc1cc(CN2CC[C@H](O)C2)ccc1-c1nc2c(N[C@H]3[C@@H](C(N)=O)[C@@H]4C=C[C@H]3C4)c(Cl)cnc2[nH]1 [Compound LV, (1S,2S,3R,4R)-3-{6-Chloro-2-[4-((S)-3-hydroxy-pyrrolidin-1-ylmethyl)-2-methoxyphenyl]-3H-imidazo[4,5-b]pyridine-7-ylamino}-bicyclo[2.2.1]hept-5-ene-2-carboxylic acid amide]	< 0.1	205 to 208	< 0.1
CN(C)c1ccc(-c2nc3c(N[C@H]4[C@@H](C(N)=O)[C@@H]5C=C[C@H]4C5)c(Br)cnc3[nH]2)cc1 [Compound LXXVI, (1S,2S,3R,4R)-3-[6-Bromo-2-(4-dimethylamino-phenyl)-3H-imidazo[4,5-b]pyridin-7-ylamino]-bicyclo[2.2.1]hept-5-ene-2-carboxylic acid amide]	< 0.1	264 to 265	< 0.1
COc1ccncc1-c1nc2c(N[C@H]3[C@@H](C(N)=O)[C@@H]4C=C[C@H]3C4)c(Br)cnc2[nH]1 [Compound CIII, (1S,2S,3R,4R)-3-[6-Bromo-2-(4-methoxy-pyridin-3-yl)-3H-imidazo[4,5-b]pyridin-7-ylamino]-bicyclo[2.2.1]hept-5-ene-2-carboxylic acid amide]	0.1 to 1	160	< 0.1
NC(=O)[C@@H]1[C@H](Nc2c(Cl)cnc3[nH]c(-c4cccc(C(=O)N5CCNC(C(=O)O)C5)c4)nc23)[C@H]2C=C[C@@H]1C2 (stereo partly drawn) [Compound CCXXV, 4-(3-(7-((1R,2R,3S,4S)-3-carbamoylbicyclo[2.2.1]hept-5-en-2-ylamino)-6-chloro-3H-imidazo[4,5-b]pyridine-2-yl)benzoyl)piperazine-2-carboxylic acid]	< 0.1	261	0.1 to 1
COc1cc(N2CCC(N3CCN(C)CC3)CC2)ccc1-c1nc2c(N[C@H]3[C@@H](C(N)=O)[C@@H]4C=C[C@H]3C4)ccnc2[nH]1 [Compound XCIX, (1S,2S,3R,4R)-3-(2-{2-Methoxy-4-[4-(4-methyl-piperazin-1-yl)-piperidin-1-yl]-phenyl}-3H-imidazo[4,5-b]pyridin-7-ylamino)-bicyclo[2.2.1]hept-5-ene-2-carboxylic acid amide]	> 10	185 to 195	0.1 to 1
Cn1cccc1-c1nc2c(N[C@H]3[C@@H](C(N)=O)[C@@H]4C=C[C@H]3C4)c(Br)cnc2[nH]1 [Compound CIX, (1S,2S,3R,4R)-3-[6-Bromo-2-(1-methyl-1H-pyrrol-2-yl)-3H-imidazo[4,5-b]pyridin-7-ylamino]-bicyclo[2.2.1]hept-5-ene-2-carboxylic acid amide]	< 0.1	293 to 295	< 0.1
NC(=O)[C@@H]1[C@H](Nc2c(Br)cnc3[nH]c(-c4ccc(N5CCOCC5)nc4)nc23)[C@H]2C=C[C@@H]1C2 [Compound CXII, (1S,2S,3R,4R)-3-[6-Bromo-2-(6-morpholin-4-yl-pyridin-3-yl)-3H-imidazo[4,5-b]pyridin-7-ylamino]-bicyclo[2.2.1]hept-5-ene-2-carboxylic acid amide]	< 0.1	288 to 290	< 0.1
COc1cc(N2CCC(N3CCOCC3)CC2)ccc1-c1nc2c(N[C@H]3[C@@H](C(N)=O)[C@@H]4C=C[C@H]3C4)c(Br)cnc2[nH]1 [Compound XCVII, (1S,2S,3R,4R)-3-{6-Bromo-2-[2-methoxy-4-(4-morpholin-4-yl-piperidin-1-yl)-phenyl]-3H-imidazo[4,5-b]pyridin-7-ylamino}-bicyclo[2.2.1]hept-5-ene-2-carboxylic acid amide]	< 0.1	185 to 195	< 0.1
COc1ncccc1-c1nc2c(N[C@H]3[C@@H](C(N)=O)[C@@H]4C=C[C@H]3C4)c(Br)cnc2[nH]1 [Compound CI, (1S,2S,3R,4R)-3-[6-Bromo-2-(2-methoxy-pyridin-3-yl)-3H-imidazo[4,5-b]pyridin-7-ylamino]-bicyclo[2.2.1]hept-5-ene-2-carboxylic acid amide]	< 0.1	201	< 0.1
NC(=O)[C@@H]1[C@H](Nc2ccnc3[nH]c(-c4ccc(CN5CCOCC5)cc4)nc23)[C@H]2C=C[C@@H]1C2 [Compound XC, (1S,2S,3R,4R)-3-[2-(4-Morpholin-4-ylmethyl-phenyl)-3H-imidazo[4,5-b]pyridin-7-ylamino]-bicyclo[2.2.1]hept-5-ene-2-carboxylic acid amide]	1 to 10	240 to 244	> 10
Cn1cc(-c2nc3c(N[C@H]4[C@@H](C(N)=O)[C@@H]5C=C[C@H]4C5)ccnc3[nH]2)cn1 [XCIV, (1S,2S,3R,4R)-3-[2-(1-Methyl-1H-pyrazol-4-yl)-3H-imidazo[4,5-b]pyridin-7-ylamino]-bicyclo[2.2.1]hept-5-ene-2-carboxylic acid amide]	1 to 10	236 to 238	> 10
CN1CCN(c2ccc(-c3nc4c(N[C@H]5[C@@H](C(N)=O)[C@@H]6C=C[C@H]5C6)ccnc4[nH]3)cc2)CC1 [Compound LXXXVIII, (1S,2S,3R,4R)-3-{2-[4-(4-Methyl-piperazin-1-yl)-phenyl]-3H-imidazo[4,5-b]pyridin-7-ylamino}-bicyclo[2.2.1]hept-5-ene-2-carboxylic acid amide]	1 to 10	220 to 222	1 to 10
COc1cccc(OC)c1-c1nc2c(N[C@H]3[C@@H](C(N)=O)[C@@H]4C=C[C@H]3C4)c(Br)cnc2[nH]1 [Compound CVI, (1S,2S,3R,4R)-3-[6-Bromo-2-(2,6-dimethoxy-phenyl)-3H-imidazo[4,5-b]pyridin-7-ylamino]-bicyclo[2.2.1]hept-5-ene-2-carboxylic acid amide]	1 to 10	194 to 197	1 to 10
C=CCc1ccc(-c2nc3c(N[C@H]4[C@@H](C(N)=O)[C@@H]5C=C[C@H]4C5)c(Cl)cnc3[nH]2)c(OC)c1 [Compound LVI, (1S,2S,3R,4R)-3-[2-(4-Allyl-2-methoxy-phenyl)-6-chloro-3H-imidazo[4,5-b]pyridine-7-ylamino]-bicyclo[2.2.1]hept-5-ene-2-carboxylic acid amide]	< 0.1	123 to 126	< 0.1
COc1cc(N(C)C)ccc1-c1nc2c(N[C@H]3[C@@H](C(N)=O)[C@@H]4C=C[C@H]3C4)c(Br)cnc2[nH]1 [Compound LXXXIV, (1S,2S,3R,4R)-3-[6-Bromo-2-(4-dimethylamino-2-methoxy-phenyl)-3H-imidazo[4,5-b]pyridin-7-ylamino]-bicyclo[2.2.1]hept-5-ene-2-carboxylic acid amide]	< 0.1	218 to 220	< 0.1
Cn1cc(-c2nc3c(N[C@H]4[C@@H](C(N)=O)[C@@H]5C=C[C@H]4C5)c(Br)cnc3[nH]2)cn1 [Compound LXXXV, (1S,2S,3R,4R)-3-[6-Bromo-2-(1-methyl-1H-pyrazol-4-yl)-3H-imidazo[4,5-b]pyridin-7-ylamino]-bicyclo[2.2.1]hept-5-ene-2-carboxylic acid amide]	< 0.1	255 to 258	0.1 to 1
NC(=O)[C@@H]1[C@H](Nc2c(Cl)cnc3[nH]c(-c4ccc(C(=O)NC(CO)C(=O)O)cc4)nc23)[C@H]2C=C[C@@H]1C2 (stereo partly drawn) [Compound CCXXX, 2-(4-(7-((1R,2R,3S,4S)-3-carbamoylbicyclo(2.2.1)hept-5-en-2-ylamino)-6-chloro-3H-imidazo[4,5-b]pyridine-2-yl)benzamido)-3-hydroxypropanoic acid]	< 0.1	186	0.1 to 1
